Values quoted from earlier work, collected in patent publication US4305927A, “Method for the management of intraocular pressure” (ALZA Corporation, priority 1980, dated 1981).

System: carbonic anhydrase

CC(=O)Nc1nnc(S(N)(=O)=O)s1 [acetazolamide, 5-acetamido-1,3,4-thiadiazole-2-sulfonamide]
action on carbonic anhydrase: enzyme inhibitor that acts on carbonic anhydrase
